Columns and labels:
blackgrass = assay: Test B pre/postemergence blackgrass; type: in vivo, Alopecurus myosuroides
How it was run: (§1)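 Herbicidal effect was estimated by eye on a ten-point control scale after plants spent twelve to sixteen days in a greenhouse following soil or foliar treatment. Foliar sprays targeted plants at one to four leaves; all doses were formulated in a non-phytotoxic solvent with surfactant.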

cocklebur = assay: Test B pre/postemergence cocklebur; type: in vivo, Xanthium strumarium
How it was run: as §1

giant foxtail = assay: Test B pre/postemergence giant foxtail; type: in vivo, Setaria faberii
How it was run: as §1

morningglory = assay: Test B pre/postemergence morningglory; type: in vivo, Ipomoea hederacea
How it was run: as §1

pigweed = assay: Test B pre/postemergence pigweed; type: in vivo, Amaranthus retroflexus
How it was run: as §1

rape = assay: Test B pre/postemergence rape; type: in vivo, Brassica napus
How it was run: as §1

soybean = assay: Test B pre/postemergence soybean; type: in vivo, Glycine max
How it was run: as §1

sugar beet = assay: Test B pre/postemergence sugar beet; type: in vivo, Beta vulgaris
How it was run: as §1

velvetleaf = assay: Test B pre/postemergence velvetleaf; type: in vivo, Abutilon theophrasti
How it was run: as §1

wheat = assay: Test B pre/postemergence wheat; type: in vivo, Triticum aestivum
How it was run: as §1

wild oat = assay: Test B pre/postemergence wild oat; type: in vivo, Avena fatua
How it was run: as §1

purple nutsedge = assay: Test B pre/postemergence purple nutsedge; type: in vivo, Cyperus rotundus
How it was run: as §1

rice = assay: Test B flood test rice; type: in vivo, Oryza sativa
How it was run: (§2)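 Plants were grown to the 2-leaf stage before treatment with test chemical, then held in a greenhouse for twelve to sixteen days. Injury was visually rated against untreated controls on a 0–10 scale, where 0 is no effect and 10 is complete control.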

smallflower flatsedge = assay: Test B flood test smallflower flatsedge; type: in vivo, Cyperus difformis
How it was run: as §2

duck salad = assay: Test B flood test duck salad; type: in vivo, Heteranthera limosa
How it was run: as §2

bamyardgrass = assay: Test B flood test barnyardgrass; type: in vivo, Echinochloa crus-galli
How it was run: as §2

[1] = Postemergence, Rate 125 g/ha, scale of 0 to 10 where 0 is no effect and 10 is complete control
[2] = Postemergence, Rate 1000 g/ha, scale 0 to 10 (0 no effect, 10 complete control)
[3] = Preemergence, Rate 125 g/ha, 0 is no effect, 10 is complete control
[4] = Preemergence, Rate 250 g/ha, scale 0 to 10, 0 is no effect, 10 is complete control
[5] = Preemergence, Rate 500 g/ha, scale 0 to 10 (0 no effect, 10 complete control)
[6] = Rate 250 g/ha, Postemergence, scale 0 to 10, 0 is no effect, 10 is complete control
[7] = Rate 500 g/ha, Postemergence, scale 0 to 10
[8] = Rate 1000 g/ha, Preemergence, scale 0 to 10 (0 no effect, 10 complete control)
[9] = Postemergence (flood test species), Rate 125 g/ha, scale of 0 to 10 where 0 is no effect and 10 is complete control
[10] = Rate 250 g/ha, Postemergence (flood test), scale 0 to 10, 0 is no effect, 10 is complete control
[11] = Rate 500 g/ha, listed under Postemergence (flood test species), scale 0 to 10

Cc1ccccc1-n1c(=O)on(C(=O)N(c2c(F)cccc2F)C(C)C)c1=O [Compound 176]
7: Blackgrass plant response rating (blackgrass; [2]) | Plant response rating, Blackgrass (blackgrass; [8]) | Giant foxtail plant response rating (giant foxtail; [2]) | Morningglory plant response rating (morningglory; [2])
2: Blackgrass plant response rating (blackgrass; [4]) | Cocklebur plant response rating (cocklebur; [1]) | Plant response rating, Cocklebur (cocklebur; [6]) | Morningglory plant response rating (morningglory; [1]) | Plant response rating, Morningglory (morningglory; [6]) | Soybean plant response rating (soybean; [1]) | Plant response rating, Soybean (soybean; [6]) | Plant response rating, Soybean (soybean; [8]) | Sugarbeets plant response rating (sugar beet; [5]) | Velvetleaf plant response rating (velvetleaf; [5]) | Plant response rating, Velvetleaf (velvetleaf; [6]) | Velvetleaf plant response rating (velvetleaf; [7]) | Wheat plant response rating (wheat; [7])
10: Giant foxtail plant response rating (giant foxtail; [4]) | Giant foxtail plant response rating (giant foxtail; [5]) | Plant response rating, Giant foxtail (giant foxtail; [8]) | Plant response rating, Nutsedge (purple nutsedge; [8])
6: Cocklebur plant response rating (cocklebur; [2]) | Giant foxtail plant response rating (0 to 10 scale) (giant foxtail; [3]) | Giant foxtail plant response rating (giant foxtail; [7]) | Plant response rating, Sugarbeets (sugar beet; [8])
1: Redroot pigweed plant response rating (pigweed; [2])
4: Soybean plant response rating (soybean; [2]) | Soybean plant response rating (soybean; [7]) | Sugarbeets plant response rating (sugar beet; [2]) | Wheat plant response rating (wheat; [2]) | Plant response rating, Wheat (wheat; [8]) | Wild oats plant response rating (wild oat; [2])
3: Blackgrass plant response rating (blackgrass; [5]) | Blackgrass plant response rating (blackgrass; [7]) | Cocklebur plant response rating (cocklebur; [7]) | Morningglory plant response rating (morningglory; [7]) | Plant response rating, Rape (rape; [8]) | Velvetleaf plant response rating (velvetleaf; [2]) | Wild oats plant response rating (wild oat; [4])
5: Plant response rating, Velvetleaf (velvetleaf; [8]) | Wild oats plant response rating (wild oat; [5]) | Plant response rating, Wild oats (wild oat; [8])
0: Blackgrass plant response rating (blackgrass; [1]) | Blackgrass plant response rating (0 to 10 scale) (blackgrass; [3]) | Plant response rating, Blackgrass (blackgrass; [6]) | Cocklebur plant response rating (0 to 10 scale) (cocklebur; [3]) | Cocklebur plant response rating (cocklebur; [4]) | Cocklebur plant response rating (cocklebur; [5]) | Plant response rating, Cocklebur (cocklebur; [8]) | Giant foxtail plant response rating (giant foxtail; [1]) | Plant response rating, Giant foxtail (giant foxtail; [6]) | Morningglory plant response rating (0 to 10 scale) (morningglory; [3]) | Morningglory plant response rating (morningglory; [4]) | Morningglory plant response rating (morningglory; [5]) | Plant response rating, Morningglory (morningglory; [8]) | Redroot pigweed plant response rating (pigweed; [1]) | Redroot pigweed plant response rating (0 to 10 scale) (pigweed; [3]) | Redroot pigweed plant response rating (pigweed; [4]) | Redroot pigweed plant response rating (pigweed; [5]) | Plant response rating, Redroot pigweed (pigweed; [6]) | Redroot pigweed plant response rating (pigweed; [7]) | Plant response rating, Redroot pigweed (pigweed; [8]) | Rape plant response rating (rape; [1]) | Rape plant response rating (rape; [2]) | Rape plant response rating (0 to 10 scale) (rape; [3]) | Rape plant response rating (rape; [4]) | Rape plant response rating (rape; [5]) | Plant response rating, Rape (rape; [6]) | Rape plant response rating (rape; [7]) | Soybean plant response rating (0 to 10 scale) (soybean; [3]) | Soybean plant response rating (soybean; [4]) | Soybean plant response rating (soybean; [5]) | Sugarbeets plant response rating (sugar beet; [1]) | Sugarbeets plant response rating (0 to 10 scale) (sugar beet; [3]) | Sugarbeets plant response rating (sugar beet; [4]) | Plant response rating, Sugarbeets (sugar beet; [6]) | Sugarbeets plant response rating (sugar beet; [7]) | Velvetleaf plant response rating (0 to 10 scale) (velvetleaf; [3]) | Velvetleaf plant response rating (velvetleaf; [4]) | Wheat plant response rating (0 to 10 scale) (wheat; [3]) | Wheat plant response rating (wheat; [4]) | Wheat plant response rating (wheat; [5]) | Plant response rating, Wheat (wheat; [6]) | Wild oats plant response rating (0 to 10 scale) (wild oat; [3]) | Plant response rating, Wild oats (wild oat; [6]) | Wild oats plant response rating (wild oat; [7]) | Nutsedge plant response rating (purple nutsedge; [1]) | Nutsedge plant response rating (0 to 10 scale) (purple nutsedge; [3]) | Nutsedge plant response rating (purple nutsedge; [4]) | Nutsedge plant response rating (purple nutsedge; [5]) | Plant response rating, Nutsedge (purple nutsedge; [6]) | Nutsedge plant response rating (purple nutsedge; [7]) | Rice plant response rating (rice; [9]) | Rice plant response rating (rice; [2]) | Plant response rating, Rice (rice; [10]) | Rice plant response rating (rice; [11]) | S. Flatsedge plant response rating (smallflower flatsedge; [9]) | S. Flatsedge plant response rating (smallflower flatsedge; [2]) | Plant response rating, S. Flatsedge (smallflower flatsedge; [10]) | S. Flatsedge plant response rating (smallflower flatsedge; [11]) | Ducksalad plant response rating (duck salad; [9]) | Ducksalad plant response rating (duck salad; [2]) | Plant response rating, Ducksalad (duck salad; [10]) | Ducksalad plant response rating (duck salad; [11]) | Barnyardgrass plant response rating (bamyardgrass; [9]) | Barnyardgrass plant response rating (bamyardgrass; [2]) | Plant response rating, Barnyardgrass (bamyardgrass; [10]) | Barnyardgrass plant response rating (bamyardgrass; [11])

Source: US6737383B1, “Herbicidal oxadiazolidines” (priority 1999, dated 2004)
